Results reported in ChEMBL document CHEMBL4482313, “Method and compounds for inhibition of cell death” (2012).
Calls of active or inactive are those of the source. The rule behind the calls is not given here.

Assays:
[1] = target: T1, Serine protease HTRA2, mitochondrial (Homo sapiens) (UniProt O43464); test: Inhibition of MBP-fused Omi/HtrA2 (134 to 458 residues) (unknown origin) expressed in TB1 Escherichia coli at 20 to 100 uM pre-incubated for 15 mins before FITC-labeled dephosphorylated casein substrate addition and measured every 5 mins for 30 mins by fluorescence assay
T1 sequence (whole entry): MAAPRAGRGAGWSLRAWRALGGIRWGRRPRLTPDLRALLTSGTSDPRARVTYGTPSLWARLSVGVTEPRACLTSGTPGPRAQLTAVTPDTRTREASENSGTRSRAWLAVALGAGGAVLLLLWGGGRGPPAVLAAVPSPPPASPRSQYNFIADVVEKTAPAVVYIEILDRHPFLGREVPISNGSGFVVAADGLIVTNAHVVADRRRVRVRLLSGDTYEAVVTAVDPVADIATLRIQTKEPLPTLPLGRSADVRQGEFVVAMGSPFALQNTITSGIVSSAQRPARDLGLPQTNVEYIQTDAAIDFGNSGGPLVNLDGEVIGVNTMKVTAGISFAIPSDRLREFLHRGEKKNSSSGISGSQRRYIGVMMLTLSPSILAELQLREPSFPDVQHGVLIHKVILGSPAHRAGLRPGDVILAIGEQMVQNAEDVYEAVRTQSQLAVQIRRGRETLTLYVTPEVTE

[2] = target: T1, Serine protease HTRA2, mitochondrial (Homo sapiens); test: Irreversible inhibition of MBP-fused Omi/HtrA2 (134 to 458 residues) (unknown origin) expressed in TB1 Escherichia coli at 20 to 100 uM pre-incubated for 40 mins to 1 hr before FITC-labeled dephosphorylated casein substrate addition and measured every 5 mins for 30 mins by fluorescence assay
Fibroblast [3] = type: cell-based; settings: mouse, 36 h
[4] = Drug localization in cytoplasm of human HeLa cells at 20 to 50 uM incubated for 2 hrs by confocal laser-scanning microscopy; type: ADME, subcellular
Fibroblast [5] = type: cell-based; settings: mouse, 36 h, 25 µM
Canis lupus familiaris = organism: Canis lupus familiaris; test: Inhibition of cisplatin-induced apoptosis in dog MPT cells at 20 to 50 uM pre-incubated for 20 mins before cisplatin challenge for 6 hrs by annexin-V staining based flow cytometry; type: functional, cell-based
Fibroblast [6] = type: cell-based; settings: mouse, 36 h, 25 µM; remark: listed apart in the source
[7] = target: T1, Serine protease HTRA2, mitochondrial (Homo sapiens); test: Inhibition of His-tagged Omi/HtrA2 (134 to 458 residues) (unknown origin) expressed in TB1 Escherichia coli at 10 to 100 uM pre-incubated for 10 mins before un-labeled beta-casein substrate addition and measured after 30 mins by Coomassie blue staining based SDS-PAGE analysis
[8] = target: Serine protease HTRA1 (Homo sapiens) (UniProt Q92743); test: Inhibition of His-tagged L56/HtrA1 (140 to 480 residues) (unknown origin) expressed in TB1 Escherichia coli at 10 to 50 uM pre-incubated for 15 mins before FITC-labeled dephosphorylated casein substrate addition and measured every 5 mins for 30 mins by fluorescence assay
[9] = target: T1, Serine protease HTRA2, mitochondrial (Homo sapiens); test: Inhibition of His-tagged Omi/HtrA2 (134 to 458 residues) (unknown origin) expressed in TB1 Escherichia coli at 10 to 50 uM pre-incubated for 15 mins before FITC-labeled dephosphorylated casein substrate addition and measured every 5 mins for 30 mins by fluorescence assay
[10] = target: T1, Serine protease HTRA2, mitochondrial (Homo sapiens)
[11] = target: T1, Serine protease HTRA2, mitochondrial (Homo sapiens); test: Inhibition of MBP-fused Omi/HtrA2 (134 to 458 residues) (unknown origin) expressed in TB1 Escherichia coli at 10 uM pre-incubated for 15 mins before higher 2 times FITC-labeled dephosphorylated casein substrate addition and measured every 5 mins for 30 mins by fluorescence assay
[12] = target: T1, Serine protease HTRA2, mitochondrial (Homo sapiens); test: Inhibition of MBP-fused Omi/HtrA2 (134 to 458 residues) (unknown origin) expressed in TB1 Escherichia coli at 20 uM pre-incubated for 15 mins before FITC-labeled dephosphorylated casein substrate addition and measured every 5 mins for 30 mins by fluorescence assay relative to control
[13] = Inhibition of bovine trypsin incubated for 20 mins by fluorescence based assay; design: species or system Bos taurus
[14] = Inhibition of canine F10a using fluorogenic substrate incubated for 20 mins by fluorescence based assay; design: species or system Canis lupus familiaris
[15] = target: T1, Serine protease HTRA2, mitochondrial (Homo sapiens); test: Inhibition of His-tagged Omi/HtrA2 (134 to 458 residues) (unknown origin) expressed in TB1 Escherichia coli at 80 uM pre-incubated for 10 mins before un-labeled beta-casein substrate addition and measured after 30 mins by Coomassie blue staining based SDS-PAGE analysis

Sequence of Serine protease HTRA1 (Homo sapiens) (Q92743 whole entry, the tested form may be a part): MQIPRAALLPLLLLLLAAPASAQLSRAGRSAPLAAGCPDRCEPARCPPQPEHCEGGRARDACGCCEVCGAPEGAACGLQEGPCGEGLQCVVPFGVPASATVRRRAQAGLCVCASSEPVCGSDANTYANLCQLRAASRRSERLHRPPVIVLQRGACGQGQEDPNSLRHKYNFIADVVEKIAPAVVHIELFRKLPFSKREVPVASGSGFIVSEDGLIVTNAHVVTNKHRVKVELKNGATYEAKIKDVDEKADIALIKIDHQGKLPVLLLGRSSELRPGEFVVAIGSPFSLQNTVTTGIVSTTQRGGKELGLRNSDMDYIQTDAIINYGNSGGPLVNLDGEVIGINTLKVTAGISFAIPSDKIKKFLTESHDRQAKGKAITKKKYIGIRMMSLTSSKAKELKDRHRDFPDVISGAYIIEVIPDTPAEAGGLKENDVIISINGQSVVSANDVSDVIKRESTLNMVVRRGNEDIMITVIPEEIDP

| Structure (SMILES) | inhibition [1] | inhibition [2] | Activity (Fibroblast [3]) | Drug uptake [4] | Activity (Fibroblast [5]) | inhibition (Canis lupus familiaris) | Activity (Fibroblast [6]) | inhibition [7] | inhibition [8] | inhibition [9] | inhibition [10] | inhibition [11] | inhibition [12] | IC50 [13] | IC50 [14] | inhibition [15] |
| --- | --- | --- | --- | --- | --- | --- | --- | --- | --- | --- | --- | --- | --- | --- | --- | --- |
| O=C(O)c1cccc(-c2ccc(C=C3C(=O)N(c4ccccc4)C(=S)N(c4ccccc4)C3=O)o2)c1 | Active | inactive | – | – | – | – | – | – | – | – | – | – | – | – | – | – |
| Cc1cccc([N+](=O)[O-])c1-c1ccc(C=C2C(=O)N(c3ccccc3)C(=S)N(c3ccccc3)C2=O)o1 | Active | inactive | Non-Toxic | Active | Non-Toxic | Dose-dependent effect | Non-Toxic | Dose-dependent effect | Active | inactive | < 40% | inactive | > 78% | > 500 µM | 360 to 430 µM | 100% |
| COc1ccc(-c2ccc(C=C3C(=O)N(c4ccccc4)C(=S)N(c4ccccc4)C3=O)o2)cc1Cl | Active | inactive | – | – | – | – | – | – | – | – | – | – | – | – | – | – |
| Cc1ccc([N+](=O)[O-])cc1-c1ccc(C=C2C(=O)N(c3ccccc3)C(=S)N(c3ccccc3)C2=O)o1 | Active | inactive | – | – | – | – | – | – | – | – | – | – | 58% | – | – | – |
